Reference: patent US8309111B2, “High alcohol content foaming compositions with silicone-based surfactants” (Deb Worldwide Healthcare Inc., priority 2005, dated 2012)

Assay: Foam evaluation of the prepared solutions: whether foam was produced, and foam description and quality
Type: physicochemical
Procedure: Examples 1 through 12 were prepared to illustrate the ability to produce alcohol-based disinfecting formulations which can be dispensed as foams using different surfactants and a solution of water and 50% ethanol. Examples 13 through 16 illustrate increasing concentrations of a silicone-based surfactant to produce foam with 40% ethanol. Examples 17 through 32 show increasing concentrations of ethanol with different silicone-based surfactants to produce foam. Examples 33 through 36 illustrate increasing concentrations of a silicone-based surfactant to produce acceptable foam at 62% ethanol. Examples 37 through 52 illustrate the ability to produce foam using different surfactants and a solution of 70% v/v Isopropanol. All parts and percentages are expressed by weight unless otherwise indicated.
The following examples were intended to evaluate the foaming ability of different groups of silicone surfactants with different combinations of ethanol, n-propyl alcohol and Isopropyl alcohol. They were also designed to asses the effect in the after feel as well as in the foam quality of some emollients and humectants, lipids, and other cosmetic type desired ingredients to be used with a leave-on hand sanitizer product. […]
The solutions prepared, were evaluated as to whether foam was produced or not and if so, then the foam produced was described as follows: […]

- Foam result compared with silicone-based surfactants (CAPB alone, 40% ethanol, 3% CAPB, versus 60% v/v ethanol with less than 1.0% silicone-based surfactant): unable to produce as good results
- Acceptable foam (above 40% ethanol): does not give any acceptable foam
Substance: Cocamidopropyl betaine
